Values after ≈ are worked out from the molar mass of the structure shown.
Tests used:
CDK2 = CDK2 (Homo sapiens, UniProt P24941); assay: CDK2 assay (histone H1 phosphorylation, 32P-ATP filter assay); assay type: biochemical; conditions: concentration required to inhibit CDK2 activity by 50%; histone H1, 30 μM ATP, 30° C., 30 min; read-out: IC50 (μg/mL) enzyme (converted)
Protocol: Compositions of this invention were assayed to determine their CDK2 inhibitory activity. The assay system (total volume of 50 μl) contained 50 mM Tris-Cl, pH 7.4, 10 mMgCl2, 5 mM DTT, 1 μg of histone H1, 30 μM ATP (1 μCi of gamma ^32P labeled ATP?), 10 μg of BSA and 1 μg of purified CDK2. After incubation at 30° C. for 30 min, the reaction was terminated by the addition of 10 μl of 10% TCA and the samples were blotted onto to nitrocellulose filters. These filters were washed extensively in 10% TCA and assayed for radioactivity. Blanks contained no enzyme. […] After incubation at 30 min., the assay tubes Were processed as above.

[1] = tested on: rat aortic smooth muscle cells; assay: Cell proliferation assay, rat aortic smooth muscle cells (MTS); assay type: cell-based; conditions: concentration required to inhibit cell proliferation by 50%, 48 hr incubation, read-out: IC50 (μg/mL) cells
Protocol: (§1) Early passage rat aortic smooth muscle cells (CV Therapeutics Cell repository) were seeded in 48 well dishes (Falcon, […]) at a density of 20,000 cells/ml of DME containing 5% heat inactivated bovine serum. The cells were incubated in a standard tissue culture incubator for 48 hr. The medium was aspirated and the wells were replenished with 0.2 ml of fresh medium. Compounds of this invention were added at concentrations ranging from 100 to 0.37 μg/ml. After 48 hr incubation, the medium was aspirated and the cultures were treated with 0.2 ml of saline 0.25 μl of phenozine methosulfate solution containing MTS (Cell Titer 96® Aqueous Non-radioactive cell proliferation assay kit, Catalog # G 5430, Promega, 2800 Woods Hollow Road, Madison, Wis. 53711-5399).

[2] = tested on: PupVSMC rat neonatal aortic smooth muscle cells; assay: Cell proliferation assay, PupVSMC; assay type: cell-based; conditions: Rat neonatal aortic smooth muscle cells, Table 9; the values are: IC50
Protocol: as §1
(§2) Similar assays were performed using the following cell lines; P388—mouse lymphoid neoplasm; L1210—mouse lympheytic leukemia; Caco2 human colon adenocarcinoma; MCF7 human breast adenocarcinoma; PupVSMC rat neonatal aortic smooth muscle cells; Ovcar human ovarian Carcinoma; Pancl human pancreatic adenocarcinoma; and HUVEC human umbilical cord endothelial cells.

[3] = tested on: L1210 mouse lympheytic leukemia; assay: Cell proliferation assay, L1210; assay type: cell-based; conditions: Mus musculus, L1210; L 120 cells; read-out: IC50 (μg/ml) for Inhibition of Cell Proliferation, L 120
Protocol: as §1, §2

[4] = tested on: Caco2 human colon adenocarcinoma; assay: Cell proliferation assay, Caco2; assay type: cell-based; conditions: Homo sapiens, Caco-2; Caco2 cells; read-out: IC50 (μg/ml) for Inhibition of Cell Proliferation, Caco2
Protocol: as §1, §2

[5] = tested on: MCF7 human breast adenocarcinoma; assay: Cell proliferation assay, MCF7; assay type: cell-based; conditions: Homo sapiens; MCF7 cells; read-out: IC50 (μg/ml) for Inhibition of Cell Proliferation, MCF7
Protocol: as §1, §2

[6] = tested on: Pancl human pancreatic adenocarcinoma; assay: Cell proliferation assay, Panc1; assay type: cell-based; conditions: Panc 1 cells
Protocol: as §1, §2

[7] = tested on: Ovcar human ovarian Carcinoma; assay: Cell proliferation assay, OvCar; assay type: cell-based; conditions: OvCar cells
Protocol: as §1, §2

[8] = tested on: P388 mouse lymphoid neoplasm; assay: Cell proliferation assay, P388; assay type: cell-based; conditions: P388 cells
Protocol: as §1, §2

IC50 (CDK2) [nM] | SMILES | further results
77100 | CC(C)n1cnc2c(NCc3ccc(Cl)cc3)nc(NCCCCCN)nc21 | –
85500 | CC(=O)C(C)n1cnc2c(NCc3ccc(Cl)cc3)nc(N(CCO)CCO)nc21 (stereo not drawn) | –
1930 | CC(C)n1cnc2c(NCc3ccc4c(c3)OCO4)nc(N(CCO)CCO)nc21 | –
1090 | CC(C)n1cnc2c(Nc3cccc(-c4ccc(C#N)cc4)c3)nc(N(CCO)CCO)nc21 | –
2520 | COc1ccc(CNc2nc(N3CCCC(O)C3)nc3c2ncn3C(C)C)cc1 (stereo not drawn) | –
> 98300 | COc1ccc(CNc2nc(Cl)nc3c2ncn3C(F)(C(F)(F)F)C(F)(F)F)cc1 | –
1390 | CC(C)n1cnc2c(NCc3ccc(-c4ccccc4)cc3)nc(NCC(O)CO)nc21 (stereo not drawn) | –
934 | CC(C)n1cnc2c(NCc3ccc(Cl)cc3)nc(N[C@H](C)CO)nc21 | –
1510 | CC(C)n1cnc2c(NCc3ccc(F)cc3)nc(NC[C@H]3CCCO3)nc21 | –
694 | CC(C)n1cnc2c(NCc3ccc(Cl)cc3)nc(N[C@@H](C)CO)nc21 | –
2760 | FC(F)(F)n1cnc2c(NCc3ccc(Cl)cc3)nc(Cl)nc21 | –
174 | CSc1ccc(Nc2nc(N(CCO)CCO)nc3c2ncn3C(C)C)cc1 | –
– | CC(N)CNc1nc(NCc2ccc(Cl)cc2)c2ncn(C(C)C)c2n1 (stereo not drawn) [{2-[(2-aminopropyl)amino]-9-(methylethyl)purin-6-yl}[(4-chlorophenyl)methyl]amine] | inhibitory activity, Pup VSMC [2]: 0.1 µg/mL
248 | CSc1cccc(Nc2nc(N(CCO)CCO)nc3c2ncn3C(C)C)c1 | –
1390 | CC(C)n1cnc2c(Nc3ccc(-c4ccccc4)cc3)nc(N(CCO)CCO)nc21 | –
2710 | COc1cccc(CNc2nc(Cl)nc3c2ncn3C(C)C)c1 | –
– | CC(C)n1cnc2c(NCc3ccc(Cl)cc3)nc(N(CCO)CCO)nc21 [listing 1 of 2 here] | inhibitory activity, Pup VSMC [2]: 0.3 µg/mL
2380 | CC(C)n1cnc2c(NCc3ccc(Cl)cc3)nc(NC[C@@H](N)Cc3ccccc3)nc21 | –
296 | CC(C)n1cnc2c(NCc3ccc(Cl)cc3)nc(N(CCO)CCO)nc21 [listing 2 of 2 here] | –

IC50 (CDK2) [nM] | SMILES | further results
– | CC(C)n1cnc2c(NCc3ccc(-c4ccccc4)cc3)nc(N(CCO)CCO)nc21 [2-diethanolamino-6-(4-phenybenzylamino)-9-isopropyl Purine] | IC50 [3]: 1 µg/mL (≈ 2.24 µM); IC50 [4]: 3.5 µg/mL (≈ 7.84 µM); IC50 [5]: 1 µg/mL (≈ 2.24 µM); IC50 ([6]; Homo sapiens, read-out: IC50 (μg/ml) for Inhibition of Cell Proliferation, Panc 1): 1.3 µg/mL (≈ 2.91 µM); IC50 ([7]; Homo sapiens, read-out: IC50 (μg/ml) for Inhibition of Cell Proliferation, OvCar): 2 µg/mL (≈ 4.48 µM)
2310 | CC(C)n1cnc2c(NCc3ccc(Cl)cc3)nc(N[C@@H](Cc3ccccc3)C(N)=O)nc21 | –
1640 | CC(C)n1cnc2c(NCc3ccc(F)cc3)nc(NC[C@@H]3CCCO3)nc21 | –
1100 | CC(C)n1cnc2c(NCc3ccc(-c4cccs4)cc3)nc(N(CCO)CCO)nc21 | –
– | CC(C)n1cnc2c(NCc3ccc(Cl)cc3)nc(N(CCN)CCO)nc21 [2-[(2-aminoethyl)(6-{[(4-chlorophenyl)methyl]amino}-9-(methylethyl)purin-2-yl)amino]ethan-1-ol] | inhibitory activity, Pup VSMC [2]: 0.3 µg/mL
– | CCC(CO)Nc1nc(NCc2ccc(F)cc2)c2ncn(C(C)C)c2n1 (stereo not drawn) | IC50 [1]: 2.4 µg/mL (≈ 6.44 µM)
3480 | CC(C)n1cnc2c(Nc3ccccc3)nc(Cl)nc21 [R1=anilino; R2=isopropyl; R3=Cl] | –
472 | CC(C)[C@H](CO)Nc1nc(NCc2ccc(Cl)cc2)c2ncn(C(C)C)c2n1 | –
26400 | CC(=O)C(C)n1cnc2c(NCc3ccc(F)cc3)nc(N(CCO)CCO)nc21 (stereo not drawn) | –
1300 | Cc1ccc(-c2ccc(CNc3nc(N(CCO)CCO)nc4c3ncn4C(C)C)cc2)cc1 | –
1340 | CC(N)CNc1nc(NCc2ccc(F)cc2)c2ncn(C(C)C)c2n1 (stereo not drawn) | –
– | COc1ccc(CNc2nc(NC(CO)CO)nc3c2ncn3C(C)C)cc1 | IC50 [1]: 15 µg/mL (≈ 38.8 µM)
502 | CC(CO)Nc1nc(NCc2ccc(F)cc2)c2ncn(C(C)C)c2n1 (stereo not drawn) | –
614 | CC(C)n1cnc2c(NCc3ccc(F)cc3)nc(NC[C@H](C)O)nc21 | –
1170 | CC(C)n1cnc2c(NCc3ccc(-c4ccc(C(F)(F)F)cc4)cc3)nc(N(CCO)CCO)nc21 | –
> 164000 | COc1ccc(CNc2nc(Cl)nc3c2ncn3CCCCl)cc1 | –
– | COc1ccc(CNc2nc(N3CCOCC3)nc3c2ncn3C(C)C)cc1 | IC50 (μg/ml) for Inhibition of Cell Proliferation, P 388 [8]: >5 µg/mL; IC50 (μg/ml) for Inhibition of Cell Proliferation, Panc 1 [6]: 5.5 µg/mL; IC50 (μg/ml) for Inhibition of Cell Proliferation, OvCar [7]: 4.0 µg/mL
1250 | COc1cccc(CNc2nc(N(CCO)CCO)nc3c2ncn3C(C)C)c1 | –
1870 | COc1ccc(CNc2nc(N(CC(C)O)CC(C)O)nc3c2ncn3C(C)C)cc1 (stereo not drawn) | –

IC50 (CDK2) [nM] | SMILES | further results
12200 | COc1ccc(CNc2nc(NCCO)nc3c2ncn3C)cc1 | IC50 [1]: 48 µg/mL (≈ 146 µM)
> 238000 | Cn1cnc2c(NCCO)nc(NCCO)nc21 [R1=ethanolamino; R2=Me; R3=Ethanolamino] | IC50 [1]: > 70 µg/mL
358 | CC(C)n1cnc2c(NCc3ccc(-c4ccccn4)cc3)nc(N(CCO)CCO)nc21 | –
3250 | CC(C)n1cnc2c(NCC3CCCCC3)nc(Cl)nc21 | –
1800 | CSc1ccc(Nc2nc(Cl)nc3c2ncn3C(C)C)cc1 | –
124 | CC(C)[C@@H](CO)Nc1nc(NCc2ccc(Cl)cc2)c2ncn(C(C)C)c2n1 | –
76000 | COc1ccc(CNc2nc(N(CCO)CCO)nc3c2ncn3C(F)(C(F)(F)F)C(F)(F)F)cc1 | –
– | CC(C)n1cnc2c(NCc3ccc(F)cc3)nc(NCCN)nc21 | IC50 [1]: 1.4 µg/mL (≈ 4.08 µM)
19800 | COc1ccc(CNc2nc(Cl)nc3c2ncn3C)cc1 [R1=4-methoxybenzylamino; R2=Me; R3=Cl] | IC50 [1]: > 70 µg/mL
2240 | COc1ccc(CNc2nc(N(CCO)Cc3ccccc3)nc3c2ncn3C(C)C)cc1 | –
1010 | CC(C)n1cnc2c(NCc3ccc(Cl)cc3)nc(NC[C@H](C)O)nc21 | –
2670 | CC(C)n1cnc2c(NCc3ccc(Cl)cc3)nc(NCCCN)nc21 | –
492 | CC(C)[C@@H](CO)Nc1nc(NCc2ccc(F)cc2)c2ncn(C(C)C)c2n1 | –
> 211000 | OCCNc1nc(NCc2ccccc2)nc2[nH]cnc12 [R1=ethanolamino; R2=H; R3=Benzylamino] | –
973 | CC(C)n1cnc2c(NCc3ccc(Cl)cc3)nc(NCCN)nc21 | –
11200 | COc1ccc(CNc2nc(NCCO)nc3c2ncn3C(C)C)cc1 | IC50 [1]: 43 µg/mL (≈ 121 µM)
> 168000 | COc1ccc(CNc2nc(Cl)nc3c2ncn3CCCC#N)cc1 | –
> 158000 | COc1ccc(CNc2nc(Cl)nc3c2ncn3Cc2ccccc2)cc1 | IC50 [1]: > 70 µg/mL
1150 | CC(C)n1cnc2c(NCc3ccc(Cl)cc3)nc(NC[C@@H](C)O)nc21 | –

SMILES | IC50 (CDK2) [nM] | further results
COc1ccc(CNc2nc(N3CC=CC3)nc3c2ncn3C(C)C)cc1 | 2740 | IC50 [1]: 12.5 µg/mL (≈ 34.3 µM)
CC(C)[C@H](CO)Nc1nc(NCc2ccc(F)cc2)c2ncn(C(C)C)c2n1 | 155 | IC50 [1]: 2.7 µg/mL (≈ 6.99 µM)
COc1ccc(CNc2nc(NCC(O)CN)nc3c2ncn3C(C)C)cc1 (stereo not drawn) | 1560 | IC50 [1]: 25 µg/mL (≈ 64.9 µM)
COc1ccc(CNc2nc(Cl)nc3c2ncn3C(C)C)cc1 | 12100 | IC50 [1]: 77 µg/mL (≈ 232 µM)
CC(C)n1cnc2c(NCc3ccc(Cl)cc3)nc(NCC(O)c3ccccc3)nc21 (stereo not drawn) | 183 | IC50 [1]: > 5 µg/mL
CC(C)n1cnc2c(NCc3ccc(F)cc3)nc(N(CCO)CCO)nc21 | 386 | IC50 [1]: 2.2 µg/mL (≈ 5.66 µM)
COc1ccc(CNc2nc(N(CCO)CCO)nc3c2ncn3C)cc1 | 10700 | IC50 [1]: 48 µg/mL (≈ 129 µM)
CC(C)n1cnc2c(NCc3ccc(F)cc3)nc(NC[C@@H](C)O)nc21 | 642 | IC50 [1]: > 5 µg/mL
COc1ccc(CNc2nc(N(CCO)CCO)nc3c2ncn3CCO)cc1 | 1240 | IC50 [1]: 62 µg/mL (≈ 154 µM)
CC(C)n1cnc2c(NCc3ccc(-c4ccccc4)cc3)nc(N(CCO)CCO)nc21 | 1340 | –
